Source: patent US11845828B2, “Polymerizable composition for optical material, optical material, and producing method thereof” (Mitsui Chemicals, Inc., priority 2016, dated 2023)

Test: pKa value (acid dissociation index) of compound (A)

Compound	pKa
Clc1cccnc1 [Example A3, 3-chloropyridine]	2.84
Cc1cccc(C)n1 [Example A5, 2,6-lutidine]	6.6
Cc1cc(C)nc(C)c1 [Example A6, 2,4,6-trimethylpyridine]	7.48
CCCCCCCCN(CCCCCCCC)CCCCCCCC [Example A7, trioctylamine]	8.35
